Results from patent publication US9113629B2, “4-amino-6-(4-substituted-phenyl)-picolinates and 6-amino-2-(4-substituted-phenyl)-pyrimidine-4-carboxylates and their use as herbicides” (DOW AGROSCIENCES LLC, priority 2013, dated 2015).
Read-outs that look alike come from different tables or passages of the source.

Key:
[1] = test system: PHAMI: lesser canary grass (Phalaris minor); assay: Post-emergent Test III, herbicidal activity in wheat and barley; assay type: in vivo; conditions: for pest or weed control at 35 g/ha / pest or weed control at 70 g/ha / pest or weed control at 140 g/ha: Phalaris minor, post-emergence, 504 h, read-out: Visual Growth Reduction (%) 21 Days After Application PHAMI; for pest or weed control at 35 g/ha: 35 g ai/ha; for pest or weed control at 70 g/ha: 70 g ai/ha; for pest or weed control at 140 g/ha: 140 g ai/ha; for GR50 PHAMI / GR80 PHAMI: probit analysis, 21 days after application; for GR50 PHAMI: dose for growth reduction of 50 percent; for GR80 PHAMI: dose for growth reduction of 80 percent
Summary of the method: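 Plants at the second to third true-leaf stage, grown in a greenhouse at about 18/17 °C with a 14 h photoperiod, were sprayed post-emergence at 187 L/ha with the high rate and ½× to 1/16× serial dilutions in an acetone/DMSO/crop-oil/surfactant carrier. Injury was rated visually at 21 d on a 0–100% scale, and GR20–GR90 were derived by probit analysis.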

[2] = test system: test plant species in Direct Seeded Rice; assay: Postemergence herbicidal activity in direct seeded rice (Table 13); assay type: in vivo; conditions: for GR50 BRAPP / GR80 BRAPP / GR50 CYPSS / GR80 CYPSS / GR50 ECHSS / GR80 ECHSS / GR50 LEFSS / GR80 LEFSS / GR20 ORYSS / GR50 SCPJU / GR80 SCPJU / GR50 SEBEX / GR80 SEBEX: probit analysis; for GR20 ORYSS: ORYSS: Oryza sativa (crop); for pest or weed control at 35 g/ha / pest or weed control at 70 g/ha: post-emergence, 504 h; for pest or weed control at 35 g/ha: 35 g ai/ha; for pest or weed control at 70 g/ha: 70 g ai/ha
Excerpt: Seeds or nutlets of the desired test plant species were planted in a soil matrix prepared by mixing a loam soil (43 percent silt, 19 percent clay, and 38 percent sand, with a pH of about 8.1 and an organic matter content of about 1.5 percent) and river sand in an 80 to 20 ratio. The soil matrix was contained in plastic pots with a surface area of 139.7 cm^2. When required to ensure good germination and healthy plants, a fungicide treatment and/or other chemical or physical treatment was applied. The plants were grown for 10-17 d in a greenhouse with an approximate 14-h photoperiod which was maintained at about 29° C. during the day and 26° C. during the night. Nutrients and water were added on a regular basis and supplemental lighting was provided with overhead metal halide 1000-Watt lamps as necessary. The plants were employed for testing when they reached the second or third true leaf stage. A weighed amount, determined by the highest rate to be tested, of each test compound was placed in 25 mL glass vials and dissolved in a volume of 97:3 v/v acetone-DMSO to obtain 12× stock solutions. […] The concentrated stock solutions were added to the spray solutions so that the final acetone and DMSO concentrations were 16.2% and 0.5%, respectively. Spray solutions were diluted to the appropriate final concentrations with the addition of 10 mL of an aqueous mixture of 1.5% (v/v) Agri-dex crop oil concentrate. […] Compound requirements are based upon a 12 mL application volume at a rate of 187 L/ha. Formulated compounds were applied to the plant material with an overhead Mandel track sprayer equipped with […] nozzles calibrated to deliver 187 L/ha over an application area of 0.503 square meters (m^2) at a spray height of 18 inches (43 cm) above average plant canopy height. Control plants were sprayed in the same manner with the solvent blank. The treated plants and control plants were placed in a greenhouse as described above and watered by sub-irrigation to prevent wash-off of the test compounds. After 20-22 days, the condition of the test plants, compared with that of the untreated plants, was determined visually and scored on a scale of 0 to 100 percent where 0 corresponds to no injury and 100 corresponds to complete kill. By applying the well-accepted probit analysis as described by J. Berkson in Journal of the American Statistical Society, 48, 565 (1953) and by D. Finney in “Probit Analysis” Cambridge University Press (1952), the above data can be used to calculate GR20, GR50, GR80 and GR90 values, which are defined as growth reduction factors that correspond to the effective dose of herbicide required to kill or control 20 percent, 50 percent, 80 percent or 90 percent, respectively, of a target plant.

[3] = BRAPP: broadleaf signalgrass, Brachiaria platyphylla
[4] = CYPSS: sedge (Cyperus difformis, esculentus, iria)
[5] = ECHSS: barnyardgrass (Echinochloa crus-galli), junglerice (Echinochloa colonum)
[6] = LEFSS: sprangletop (Leptochloa chinensis, Leptochloa dubia)
[7] = SCPJU: Japanese bulrush, Scirpus juncoides
[8] = SEBEX: hemp sesbania, Sesbania exaltata
[9] = BRAPP: broadleaf signalgrass, Brachiaria platyphylla, read-out: Visual Growth Reduction (%) 21 Days After Application BRAPP
[10] = CYPSS: sedge (Cyperus difformis, esculentus, iria), read-out: Visual Growth Reduction (%) 21 Days After Application CYPSS
[11] = ECHSS: barnyardgrass (Echinochloa crus-galli), junglerice (Echinochloa colonum), read-out: Visual Growth Reduction (%) 21 Days After Application ECHSS
[12] = LEFSS: sprangletop (Leptochloa chinensis, Leptochloa dubia), read-out: Visual Growth Reduction (%) 21 Days After Application LEFSS
[13] = ORYSS: Oryza sativa, read-out: Visual Growth Reduction (%) 21 Days After Application ORYSS
[14] = SCPJU: Japanese bulrush, Scirpus juncoides, read-out: Visual Growth Reduction (%) 21 Days After Application SCPJU
[15] = SEBEX: hemp sesbania, Sesbania exaltata, read-out: Visual Growth Reduction (%) 21 Days After Application SEBEX

Structure (SMILES)	pest or weed control at 35 g/ha [1]	pest or weed control at 70 g/ha [1]	pest or weed control at 140 g/ha [1]	GR50 PHAMI [1]	GR80 PHAMI [1]	GR50 BRAPP [2, 3]	GR80 BRAPP [2, 3]	GR50 CYPSS [2, 4]	GR80 CYPSS [2, 4]	GR50 ECHSS [2, 5]	GR80 ECHSS [2, 5]	GR50 LEFSS [2, 6]	GR80 LEFSS [2, 6]	GR20 ORYSS [2]	GR50 SCPJU [2, 7]	GR80 SCPJU [2, 7]	GR50 SEBEX [2, 8]	GR80 SEBEX [2, 8]	pest or weed control at 35 g/ha [2, 9]	pest or weed control at 70 g/ha [2, 9]	also measured
COC(=O)c1nc(-c2ccc(Br)cc2)c(F)c(N)c1Cl [Compound 138, Methyl 4-amino-6-(4-bromophenyl)-3-chloro-5-fluoropicolinate]	45 to 59%	75 to 84%	85 to 94%	31 g ai/ha	78 g ai/ha																
COC(=O)c1nc(-c2ccc(C#N)cc2)c(F)c(N)c1Cl [Compound 142]	0 to 29%	0 to 29%	0 to 29%	>140 g ai/ha	>140 g ai/ha																
Nc1c(F)c(-c2ccc(OC(F)F)cc2)nc(C(=O)O)c1Cl [Compound 143]	0 to 29%	30 to 44%	60 to 74%	112 g ai/ha	>140 g ai/ha																
Nc1c(Cl)c(C(=O)O)nc(-c2ccc(C(F)(F)F)c(F)c2)c1Cl [Compound 146]						8 g ai/ha	29 g ai/ha	1 g ai/ha	1 g ai/ha	17 g ai/ha	32 g ai/ha	44 g ai/ha	87 g ai/ha	18 g ai/ha	1 g ai/ha	1 g ai/ha	3 g ai/ha	4 g ai/ha	60 to 74%	95 to 100%	pest or weed control at 35 g/ha [2, 10]: 95 to 100%; pest or weed control at 70 g/ha [2, 10]: 95 to 100%; pest or weed control at 35 g/ha [2, 11]: 85 to 94%; pest or weed control at 70 g/ha [2, 11]: 85 to 94%; pest or weed control at 35 g/ha [2, 12]: 0 to 29%; pest or weed control at 70 g/ha [2, 12]: 75 to 84%; pest or weed control at 35 g/ha [2, 13]: 30 to 44%; pest or weed control at 70 g/ha [2, 13]: 60 to 74%; pest or weed control at 35 g/ha [2, 14]: 95 to 100%; pest or weed control at 70 g/ha [2, 14]: 95 to 100%; pest or weed control at 35 g/ha [2, 15]: 95 to 100%; pest or weed control at 70 g/ha [2, 15]: 95 to 100%
COC(=O)c1nc(-c2ccc(I)cc2F)cc(N)c1Cl [Compound 159]						3 g ai/ha	8 g ai/ha	2 g ai/ha	5 g ai/ha	2 g ai/ha	4 g ai/ha	12 g ai/ha	19 g ai/ha	12 g ai/ha	1 g ai/ha	1 g ai/ha	1 g ai/ha	1 g ai/ha	95 to 100%	95 to 100%	pest or weed control at 35 g/ha [2, 10]: 95 to 100%; pest or weed control at 70 g/ha [2, 10]: 95 to 100%; pest or weed control at 35 g/ha [2, 11]: 95 to 100%; pest or weed control at 70 g/ha [2, 11]: 95 to 100%; pest or weed control at 35 g/ha [2, 12]: 95 to 100%; pest or weed control at 70 g/ha [2, 12]: 95 to 100%; pest or weed control at 35 g/ha [2, 13]: 45 to 59%; pest or weed control at 70 g/ha [2, 13]: 60 to 74%; pest or weed control at 35 g/ha [2, 14]: 95 to 100%; pest or weed control at 70 g/ha [2, 14]: 95 to 100%; pest or weed control at 35 g/ha [2, 15]: 95 to 100%; pest or weed control at 70 g/ha [2, 15]: 95 to 100%
Nc1c(Cl)c(C(=O)O)nc(-c2ccc(I)cc2)c1Cl [Compound 173]						8 g ai/ha	26 g ai/ha	2 g ai/ha	4 g ai/ha	12 g ai/ha	33 g ai/ha	24 g ai/ha	47 g ai/ha	16 g ai/ha	1 g ai/ha	1 g ai/ha	1 g ai/ha	1 g ai/ha	75 to 84%	95 to 100%	pest or weed control at 35 g/ha [2, 10]: 95 to 100%; pest or weed control at 70 g/ha [2, 10]: 95 to 100%; pest or weed control at 35 g/ha [2, 11]: 75 to 84%; pest or weed control at 70 g/ha [2, 11]: 95 to 100%; pest or weed control at 35 g/ha [2, 12]: 45 to 59%; pest or weed control at 70 g/ha [2, 12]: 95 to 100%; pest or weed control at 35 g/ha [2, 13]: 45 to 59%; pest or weed control at 70 g/ha [2, 13]: 60 to 74%; pest or weed control at 35 g/ha [2, 14]: 95 to 100%; pest or weed control at 70 g/ha [2, 14]: 95 to 100%; pest or weed control at 35 g/ha [2, 15]: 95 to 100%; pest or weed control at 70 g/ha [2, 15]: 95 to 100%
